ChEMBL document CHEMBL1201862, “PubChem BioAssay data set” (2004)
The source made the active and inactive calls.

What was measured:
Streptococcus = test: Group A Streptococcus viability loss, dose response, counter-screen for streptokinase expression inhibitor project, luminescence, BacTiterGlo (AID 1915); assay type: functional, organism-based;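 note: potency for reduction of bacterial viability or growth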
[1] = cytotoxicity toward NIH3T3 fibroblasts, dose response, counter-screen, cell-based, ATP luminescence, mouse fibroblasts (AID 2010); assay type: functional;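 note: cells exposed to compound for about 90 hours before reading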
[2] = inhibitors of intracellular T. cruzi replication, confirmation, NIH3T3 host cells, beta-gal luminescence (AID 2044); assay type: functional, cell-based;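 note: intracellular parasites grown in NIH/3T3 mouse fibroblasts as host cells; luminescent beta-galactosidase reporter signal from transgenic T. cruzi replicating inside host cells; inhibitors lower the luminescence signal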
INS1 = test: beta cell apoptosis inhibitors, cytokine rescue, dose response, luminescence, retest (AID 449756); assay type: functional, cell-based; details: Rattus norvegicus;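 note: cell death triggered by IL-1 beta plus TNF-alpha plus IFN-gamma mixture; protective hits raise ATP signal compared with cytokine alone wells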
[3] = molecular target: Serine/threonine-protein phosphatase PP1-alpha catalytic subunit (Homo sapiens, UniProt P62136); test: PP1 phosphatase inhibitors, dose response, biochemical, fluorescence (AID 2403);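 note: phosphatase turnover of OMFP into fluorescent 3-O-methylfluorescein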
[4] = test system: Streptococcus sp. 'group A'; test: growth inhibition of control SK(-) GAS strain, dose response, counter-screen for streptokinase expression inhibitor project, luminescence, kanamycin, BacTiterGlo, confirmation (AID 1900); assay type: functional, organism-based
[5] = molecular target: T1, Serine/threonine-protein phosphatase (Homo sapiens, UniProt Q9BPW0); test: Counterscreen for inhibitors of PP1: fluorescence-based biochemical high throughput dose response assay to identify inhibitors of Protein Phosphatase 5 (PP5). [Related pubchem assays: 2034 (Summary (PP5 inhibitors)), 1987 (PP5 inhibitors in singlate), 2235 (PP1 inhibitors in singlate)]
T1 sequence (Q9BPW0 whole entry): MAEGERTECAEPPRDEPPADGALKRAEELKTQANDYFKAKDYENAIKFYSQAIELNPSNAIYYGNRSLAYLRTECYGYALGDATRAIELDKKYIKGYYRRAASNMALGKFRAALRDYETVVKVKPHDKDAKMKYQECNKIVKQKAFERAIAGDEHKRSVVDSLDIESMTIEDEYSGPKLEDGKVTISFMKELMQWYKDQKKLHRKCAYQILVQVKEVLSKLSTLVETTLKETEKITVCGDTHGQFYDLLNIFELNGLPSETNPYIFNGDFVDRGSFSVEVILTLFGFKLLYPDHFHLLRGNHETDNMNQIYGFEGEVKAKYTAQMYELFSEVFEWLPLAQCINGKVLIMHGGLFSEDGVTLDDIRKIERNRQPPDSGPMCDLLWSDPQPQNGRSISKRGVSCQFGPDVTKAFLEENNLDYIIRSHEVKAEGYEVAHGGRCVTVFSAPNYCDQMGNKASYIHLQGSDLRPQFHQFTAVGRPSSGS

Procathepsin L = Procathepsin L (Homo sapiens, UniProt P07711)
Aspartyl aminopeptidase = Aspartyl aminopeptidase (Plasmodium falciparum 3D7, UniProt Q8I2J3)
[6] = molecular target: T2, Rac GTPase-activating protein 1 (Homo sapiens, UniProt Q9H0H5); test: MgcRacGAP GTPase-activating activity inhibitors, confirmation, biochemical, ADP Hunter fluorescence, primary and confirmatory (AID 624330); assay type: functional
T2 sequence (Q9H0H5 whole entry): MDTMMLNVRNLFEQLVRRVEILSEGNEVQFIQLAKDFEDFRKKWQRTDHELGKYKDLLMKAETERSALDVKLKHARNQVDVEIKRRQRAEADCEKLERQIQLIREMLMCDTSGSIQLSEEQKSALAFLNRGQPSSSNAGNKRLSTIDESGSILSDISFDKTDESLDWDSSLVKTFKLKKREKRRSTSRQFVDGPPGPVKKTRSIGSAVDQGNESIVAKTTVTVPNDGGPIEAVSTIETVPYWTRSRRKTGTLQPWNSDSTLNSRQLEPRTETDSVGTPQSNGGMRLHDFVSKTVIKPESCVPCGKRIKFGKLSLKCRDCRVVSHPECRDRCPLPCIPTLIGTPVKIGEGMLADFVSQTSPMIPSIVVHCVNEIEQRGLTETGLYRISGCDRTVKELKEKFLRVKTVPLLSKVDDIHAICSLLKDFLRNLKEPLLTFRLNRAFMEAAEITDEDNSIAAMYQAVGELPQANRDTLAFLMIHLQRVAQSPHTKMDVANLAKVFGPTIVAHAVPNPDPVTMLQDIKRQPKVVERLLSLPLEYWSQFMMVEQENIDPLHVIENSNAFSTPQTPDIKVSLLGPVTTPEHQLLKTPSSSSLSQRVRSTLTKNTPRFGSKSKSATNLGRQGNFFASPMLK

[7] = growth suppression of PTEN-null colon cells, dose response, cell-based, HCT116 PTEN knockout (AID 1047); assay type: functional;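 note: HCT116 colon tumor cells with PTEN knocked out; cells exposed to compound for 60 hours before readout; potency for loss of cell viability measured by luminescence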
[8] = molecular target: T3, Heat shock factor protein 1 (Mus musculus, UniProt P38532); test: HSF1 potentiators in luciferase reporter cells, confirmation, cell-based, NIH3T3, luminescence, dose retest (AID 435004); assay type: functional;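 note: stress induced by proteasome inhibitor MG132 added 30 min after compound; luciferase reporter driven by HSF1 response element in NIH3T3 cells; actives raise luminescence as potentiators of the MG132 stress response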
T3 sequence (P38532 whole entry): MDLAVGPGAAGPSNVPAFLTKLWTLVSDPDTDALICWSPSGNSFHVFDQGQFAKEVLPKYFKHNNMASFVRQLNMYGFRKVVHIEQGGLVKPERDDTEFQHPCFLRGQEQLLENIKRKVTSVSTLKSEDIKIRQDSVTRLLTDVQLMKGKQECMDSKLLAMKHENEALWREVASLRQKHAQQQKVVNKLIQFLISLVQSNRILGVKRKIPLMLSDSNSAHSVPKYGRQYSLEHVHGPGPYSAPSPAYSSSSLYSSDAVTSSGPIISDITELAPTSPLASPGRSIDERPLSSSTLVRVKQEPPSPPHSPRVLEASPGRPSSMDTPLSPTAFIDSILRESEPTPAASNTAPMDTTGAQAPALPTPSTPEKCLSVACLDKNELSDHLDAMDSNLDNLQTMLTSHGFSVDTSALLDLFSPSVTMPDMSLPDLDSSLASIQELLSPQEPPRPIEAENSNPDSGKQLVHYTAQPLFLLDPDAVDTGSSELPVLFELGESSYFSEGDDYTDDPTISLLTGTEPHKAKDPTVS

[9] = cytotoxicity in HEK-293T cells, dose response, cytotoxicity control for BCR NF-kB inhibitor project, luminescence, B-cell screen hits (AID 489021); assay type: functional, cell-based;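 note: HEK-293T cells carrying an NF-kB luciferase reporter; cells exposed to compound for about 14 hours before viability readout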
[10] = growth suppression of beta-catenin-knockout colon cells, dose response, cell-based, HCT116, human colon tumor (AID 1045); assay type: functional;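 note: HCT116 colon tumor cells with beta catenin knocked out; cells exposed to compound for 60 hours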
Protein Rev = Protein Rev (Human immunodeficiency virus type 1 group M subtype B (isolate HXB2)(HIV-1), UniProt P04618); test: inhibitors of Rev binding to RRE RNA, dose response, biochemical, fluorescence polarization, HIV-1 (AID 434976); parameters: species or system Human immunodeficiency virus 1
CHO = test: cytotoxicity in TLR9-MyD88 CHO cells, dose response, cytotoxicity control for TLR9-MyD88 binding inhibitor project, cell-based, luminescence (AID 588339); assay type: functional, hamster; details: Cricetulus griseus;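 note: CHO cells stably coexpressing TLR9 and MyD88 fusions from primary screen; compound exposure lasted 48 hours before viability readout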
[11] = molecular target: Female germline-specific tumor suppressor gld-1 (Caenorhabditis elegans, UniProt Q17339); test: inhibitors of GLD-1 binding to TGE RNA, dose response, biochemical, fluorescence polarization, C. elegans (AID 2802);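 note: fluorescence polarization of labeled TGE RNA bound by purified gld-1 protein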
[12] = molecular target: T4, Polyadenylate-binding protein 1 (Homo sapiens, UniProt P11940); test: PABP1 MLLE–PAM2 interaction inhibitors, dose response, miRNA deadenylation inhibitor project, biochemical, fluorescence polarization, Cy5-PAM2 peptide, secondary (AID 602260); assay type: functional; details: read-out: IC50_Mean
[13] = molecular target: T4, Polyadenylate-binding protein 1; test: PABP1 MLLE–PAM2 binding inhibitor potency, dose response, biochemical, fluorescence polarization, FITC-PAM2 peptide (AID 602259); assay type: functional; details: read-out: IC50_Mean
Beta Lactamase = Beta Lactamase (Pseudomonas aeruginosa, UniProt Q932Y6); test: beta-lactamase reporter inhibitor potency, dose response, artefact control for TLR9-MyD88 binding inhibitor project, BLA reporter cells, FRET fluorescence (AID 588341); assay type: cell-based;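 note: cell based assay in CHO-K1 cells stably expressing beta-lactamase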
[14] = molecular target: FAD-linked sulfhydryl oxidase ALR (Homo sapiens, UniProt P55789); test: inhibitors of human ALR sulfhydryl oxidase, dose response, biochemical, H2O2 detection, luminescence, cherry-pick (AID 493248)
cells [15] = assay type: functional, cell-based
[16] = molecular target: T5, Zinc finger protein mex-5 (Caenorhabditis elegans, UniProt Q9XUB2); test: MEX-5/TCR-2 RNA interaction inhibitors, dose response, biochemical, C. elegans, fluorescence polarization (AID 1960)
T5 sequence (Q9XUB2 whole entry): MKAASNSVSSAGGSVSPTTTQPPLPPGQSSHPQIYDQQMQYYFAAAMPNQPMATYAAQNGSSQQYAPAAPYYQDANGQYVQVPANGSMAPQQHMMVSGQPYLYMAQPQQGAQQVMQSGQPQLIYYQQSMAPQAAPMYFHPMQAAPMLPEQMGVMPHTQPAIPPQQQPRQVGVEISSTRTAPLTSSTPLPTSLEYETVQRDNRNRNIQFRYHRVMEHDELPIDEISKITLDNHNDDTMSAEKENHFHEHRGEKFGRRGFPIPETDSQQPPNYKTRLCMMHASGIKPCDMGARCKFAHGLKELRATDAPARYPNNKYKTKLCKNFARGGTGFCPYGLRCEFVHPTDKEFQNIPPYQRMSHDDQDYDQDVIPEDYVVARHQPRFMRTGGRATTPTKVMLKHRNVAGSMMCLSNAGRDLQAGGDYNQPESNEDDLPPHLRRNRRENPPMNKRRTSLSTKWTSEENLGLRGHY

cells [17] = assay type: functional, cell-based; remark: listed apart in the source
[18] = molecular target: T6, RNA-binding protein pos-1 (Caenorhabditis elegans, UniProt G5EF15); test: inhibitors of POS-1/mex-3 RNA binding, dose response, biochemical, fluorescence polarization (AID 1964);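 note: purified POS-1 fused to maltose binding protein made in E. coli; potency of compounds blocking POS-1 binding to fluorescent RNA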
T6 sequence (G5EF15 whole entry): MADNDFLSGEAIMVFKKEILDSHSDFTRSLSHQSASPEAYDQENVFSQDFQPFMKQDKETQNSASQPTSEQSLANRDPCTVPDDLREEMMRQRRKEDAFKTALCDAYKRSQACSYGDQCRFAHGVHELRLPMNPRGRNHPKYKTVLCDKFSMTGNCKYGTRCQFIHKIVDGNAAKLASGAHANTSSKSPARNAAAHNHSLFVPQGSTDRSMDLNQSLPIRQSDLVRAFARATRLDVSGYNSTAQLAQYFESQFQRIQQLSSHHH

Large T antigen = Large T antigen (Simian virus 40, UniProt P03070); assay type: functional, Betapolyomavirus macacae;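 note: Confirmatory-stage PubChem screen for compounds that inhibit SV40 T antigen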
Large T antigen, sequence (P03070 whole entry): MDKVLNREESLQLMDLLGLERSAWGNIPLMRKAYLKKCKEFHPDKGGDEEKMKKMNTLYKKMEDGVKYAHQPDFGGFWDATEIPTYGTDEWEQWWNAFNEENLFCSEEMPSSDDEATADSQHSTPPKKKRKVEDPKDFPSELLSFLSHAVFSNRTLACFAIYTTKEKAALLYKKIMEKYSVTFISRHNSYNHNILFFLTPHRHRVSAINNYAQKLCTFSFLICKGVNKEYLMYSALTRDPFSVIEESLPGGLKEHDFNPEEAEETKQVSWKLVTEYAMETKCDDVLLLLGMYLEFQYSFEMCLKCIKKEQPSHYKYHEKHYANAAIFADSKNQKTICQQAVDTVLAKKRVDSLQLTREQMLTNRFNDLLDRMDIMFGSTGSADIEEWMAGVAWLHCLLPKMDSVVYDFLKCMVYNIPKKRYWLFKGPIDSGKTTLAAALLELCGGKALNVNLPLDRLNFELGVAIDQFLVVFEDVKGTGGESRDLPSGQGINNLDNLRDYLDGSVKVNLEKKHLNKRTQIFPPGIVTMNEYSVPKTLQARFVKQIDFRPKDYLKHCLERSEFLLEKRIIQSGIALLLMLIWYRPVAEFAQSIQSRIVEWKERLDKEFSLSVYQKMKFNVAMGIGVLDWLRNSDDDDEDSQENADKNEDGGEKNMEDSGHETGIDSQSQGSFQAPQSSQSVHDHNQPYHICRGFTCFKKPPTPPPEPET

T4 sequence (P11940 whole entry): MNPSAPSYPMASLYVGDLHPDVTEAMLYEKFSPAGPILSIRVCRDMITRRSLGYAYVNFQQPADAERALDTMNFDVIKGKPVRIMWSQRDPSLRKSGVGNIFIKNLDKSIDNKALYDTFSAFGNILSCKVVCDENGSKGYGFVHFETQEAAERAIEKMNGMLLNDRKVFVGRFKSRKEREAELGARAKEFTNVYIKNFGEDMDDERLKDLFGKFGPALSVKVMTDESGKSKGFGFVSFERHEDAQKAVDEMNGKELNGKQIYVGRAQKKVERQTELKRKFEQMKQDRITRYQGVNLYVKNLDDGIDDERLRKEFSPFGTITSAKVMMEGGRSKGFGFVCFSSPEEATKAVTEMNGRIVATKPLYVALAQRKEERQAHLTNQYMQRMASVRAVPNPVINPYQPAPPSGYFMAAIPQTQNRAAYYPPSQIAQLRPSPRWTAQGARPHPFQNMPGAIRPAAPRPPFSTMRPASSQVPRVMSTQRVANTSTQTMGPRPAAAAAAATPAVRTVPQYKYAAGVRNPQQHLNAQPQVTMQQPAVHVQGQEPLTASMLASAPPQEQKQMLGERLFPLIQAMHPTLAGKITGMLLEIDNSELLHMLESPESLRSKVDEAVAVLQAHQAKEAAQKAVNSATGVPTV
Procathepsin L, sequence (P07711 whole entry): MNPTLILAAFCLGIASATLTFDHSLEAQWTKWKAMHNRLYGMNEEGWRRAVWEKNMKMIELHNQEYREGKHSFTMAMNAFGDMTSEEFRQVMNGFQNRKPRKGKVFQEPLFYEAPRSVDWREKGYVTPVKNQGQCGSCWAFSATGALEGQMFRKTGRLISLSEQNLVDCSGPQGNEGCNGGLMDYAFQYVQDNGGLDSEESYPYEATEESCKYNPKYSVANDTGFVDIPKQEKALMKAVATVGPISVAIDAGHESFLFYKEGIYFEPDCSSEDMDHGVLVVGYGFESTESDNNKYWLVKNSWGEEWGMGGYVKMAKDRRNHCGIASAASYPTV
Aspartyl aminopeptidase, sequence (Q8I2J3 whole entry): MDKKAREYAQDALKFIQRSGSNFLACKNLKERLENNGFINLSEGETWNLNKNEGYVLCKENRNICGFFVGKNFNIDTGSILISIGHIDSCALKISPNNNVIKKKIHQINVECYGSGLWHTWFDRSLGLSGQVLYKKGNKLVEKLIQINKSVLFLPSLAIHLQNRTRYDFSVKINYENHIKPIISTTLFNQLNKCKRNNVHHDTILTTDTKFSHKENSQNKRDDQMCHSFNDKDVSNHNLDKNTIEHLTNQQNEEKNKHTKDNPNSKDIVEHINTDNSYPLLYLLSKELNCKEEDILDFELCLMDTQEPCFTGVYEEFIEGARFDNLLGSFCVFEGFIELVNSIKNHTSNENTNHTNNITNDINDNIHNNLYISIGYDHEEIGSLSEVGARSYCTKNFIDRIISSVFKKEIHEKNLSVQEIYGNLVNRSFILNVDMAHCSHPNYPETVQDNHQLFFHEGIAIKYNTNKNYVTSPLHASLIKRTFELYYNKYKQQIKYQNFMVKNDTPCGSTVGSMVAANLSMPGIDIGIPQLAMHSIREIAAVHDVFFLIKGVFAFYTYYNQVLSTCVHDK
Beta Lactamase, sequence (Q932Y6 whole entry): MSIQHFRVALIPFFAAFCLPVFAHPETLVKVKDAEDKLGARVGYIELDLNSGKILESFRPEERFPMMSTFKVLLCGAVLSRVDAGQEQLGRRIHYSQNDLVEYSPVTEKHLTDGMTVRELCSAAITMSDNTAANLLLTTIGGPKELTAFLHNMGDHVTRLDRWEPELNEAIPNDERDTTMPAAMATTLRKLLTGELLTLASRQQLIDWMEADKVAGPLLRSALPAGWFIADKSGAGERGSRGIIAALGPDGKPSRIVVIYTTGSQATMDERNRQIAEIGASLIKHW
Female germline-specific tumor suppressor gld-1, sequence (Q17339 whole entry): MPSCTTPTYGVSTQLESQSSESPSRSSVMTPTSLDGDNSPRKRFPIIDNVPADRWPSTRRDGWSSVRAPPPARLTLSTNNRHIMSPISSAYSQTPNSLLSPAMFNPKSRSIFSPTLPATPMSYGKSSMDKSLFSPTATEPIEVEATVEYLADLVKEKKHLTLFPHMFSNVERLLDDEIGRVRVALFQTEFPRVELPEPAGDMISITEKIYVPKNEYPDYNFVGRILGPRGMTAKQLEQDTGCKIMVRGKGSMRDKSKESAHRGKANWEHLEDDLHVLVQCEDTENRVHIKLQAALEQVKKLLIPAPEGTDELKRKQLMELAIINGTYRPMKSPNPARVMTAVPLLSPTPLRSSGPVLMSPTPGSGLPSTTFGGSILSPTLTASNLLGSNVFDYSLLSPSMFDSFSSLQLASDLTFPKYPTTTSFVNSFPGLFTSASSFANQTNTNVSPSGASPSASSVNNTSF
FAD-linked sulfhydryl oxidase ALR, sequence (P55789 whole entry): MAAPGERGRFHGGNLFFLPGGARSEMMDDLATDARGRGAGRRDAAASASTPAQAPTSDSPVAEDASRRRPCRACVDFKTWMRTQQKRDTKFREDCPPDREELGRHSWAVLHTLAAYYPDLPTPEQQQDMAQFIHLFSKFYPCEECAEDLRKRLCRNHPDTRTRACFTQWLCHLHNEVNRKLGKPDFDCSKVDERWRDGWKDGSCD
Serine/threonine-protein phosphatase PP1-alpha catalytic subunit, sequence (P62136 whole entry): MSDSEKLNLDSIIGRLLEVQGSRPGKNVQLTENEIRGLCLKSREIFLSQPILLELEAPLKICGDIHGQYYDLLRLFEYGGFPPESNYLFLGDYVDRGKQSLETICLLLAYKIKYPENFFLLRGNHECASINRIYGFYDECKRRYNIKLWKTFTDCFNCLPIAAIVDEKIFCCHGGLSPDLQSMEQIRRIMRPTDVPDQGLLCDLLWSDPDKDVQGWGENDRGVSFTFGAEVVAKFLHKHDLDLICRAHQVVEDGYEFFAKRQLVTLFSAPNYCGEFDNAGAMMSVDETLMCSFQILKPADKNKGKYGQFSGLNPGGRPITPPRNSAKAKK
Protein Rev, sequence (P04618 whole entry, the tested form may be a part): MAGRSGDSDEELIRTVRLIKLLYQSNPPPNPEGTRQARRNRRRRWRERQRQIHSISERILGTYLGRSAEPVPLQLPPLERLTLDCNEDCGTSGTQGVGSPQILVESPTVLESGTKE

For `CCOC(=O)c1cnc(-n2nc(C)cc2C)nc1NC(C)c1ccccc1` (stereo not drawn), the EC50 (Streptococcus) was 5.89 µM (active), the EC50 [1] was > 60 µM (not active) and the EC50 [2] was 1.46 µM (active). The AC50 (INS1) was 4.89 µM (active), the IC50 [3] was 5.88 µM (active) and the EC50 [4] was 5.04 µM (active). For the same compound, the IC50 [5] was > 67 µM (not active).

In the case of `O=C(/C=C/c1ccc(O)c(O)c1)NC(=O)c1ccccc1O`, the IC50 (Procathepsin L) is reported as > 59.6 µM (not active), the IC50 (Aspartyl aminopeptidase) is reported as 1.47 µM (active) and the IC50 [6] is reported as 20.2 µM (active).

In the case of `COc1ccc2[nH]c(Sc3c([N+](=O)[O-])nc(C)n3Cc3ccccc3)nc2c1`, the EC50 [7] is reported as 9.43 µM (active), the EC50 [8] is reported as 8.34 µM (active) and the IC50 [9] is reported as > 80 µM (inactive). For the same compound, the EC50 [10] was 8.94 µM (active).

In the case of `O=C(CN1C(=O)NC2(CCCCC2)C1=O)Oc1ccc2c(C(F)(F)F)cc(=O)oc2c1`, the IC50 (Protein Rev) is reported as 65.3 µM (not active), the IC50 (CHO) is reported as > 49.7 µM (inactive) and the IC50 [11] is reported as 4.07 µM (active). For the same compound, the IC50 [12] was > 66 µM (inactive), the IC50 [13] was 38.3 µM (inactive) and the IC50 (Beta Lactamase) was 3.48 µM (active).

In the case of `Oc1ccc(-c2cn3ccccc3n2)cc1O`, the IC50 (Procathepsin L) is reported as > 59.6 µM (not active), the AC50 [14] is reported as 1.32 µM (active) and the EC50 (cells [15]) is reported as 25.3 µM (active). The IC50 (Aspartyl aminopeptidase) was 2.56 µM (active), the EC50 [16] was 13.6 µM (active) and the EC50 (cells [17]) was > 350 µM (not active). The EC50 [18] was > 300 µM (not active) and the IC50 (Large T antigen) was 5.28 µM (active).
